Results taken from ChEMBL document CHEMBL4814063, “Discovery of Diaminopyrimidine Carboxamide HPK1 Inhibitors as Preclinical Immunotherapy Tool Compounds” (ACS Med Chem Lett, 2021).
Converted amounts (≈) assume the structure as drawn.

Assays:
[1] = Metabolic stability in rat hepatocytes assessed as intrinsic clearance; type: ADME, cell-based, Hepatocyte
[2] = Apparent permeability in dog MDCK-II cells; type: ADME, cell-based, Canis lupus familiaris
[3] = Solubility of compound at pH 7; type: physicochemical; details: buffer
[4] = Unbound clearance in Wistar Han rat at 0.1 mg/kg, iv; type: ADME, organism-based; details: in vivo
[5] = Clearance in C57BL/6 mouse at 10 mg/kg, po or 1 mg/kg, iv; type: ADME, organism-based; details: in vivo
[6] = Oral bioavailability in C57BL/6 mouse at 10 mg/kg; type: ADME, organism-based; details: in vivo
[7] = MRT in Wistar Han rat at 0.1 mg/kg, iv; type: ADME, organism-based; details: in vivo
[8] = system: Dendritic cell; assay: […] in human monocyte derived dendritic cell assessed as increase in TNF-alpha production incubated for 24 hrs by ELISA; type: functional, cell-based
[9] = MRT in C57BL/6 mouse at 10 mg/kg, po or 1 mg/kg, iv; type: ADME, organism-based; details: in vivo
[10] = Volume of distribution in Wistar Han rat at 0.1 mg/kg, iv; type: ADME, organism-based; details: in vivo
[11] = system: Dendritic cell; assay: […] in human monocyte derived dendritic cell assessed as increase in IL-6 production incubated for 24 hrs by ELISA; type: functional, cell-based
[12] = Volume of distribution in C57BL/6 mouse at 10 mg/kg, po or 1 mg/kg, iv; type: ADME, organism-based; details: in vivo
[13] = Fraction unbound clearance in C57BL/6 mouse at 10 mg/kg, po or 1 mg/kg, iv; type: ADME, organism-based; details: in vivo
[14] = Clearance in Wistar Han rat at 0.1 mg/kg, iv; type: ADME, organism-based; details: in vivo
[15] = Solubility of compound at pH 2; type: physicochemical; details: buffer
[16] = AUC in C57BL/6 mouse at 100 mg/kg, po measured after 8 hrs; type: ADME, organism-based; design: route oral, dose 100 mg/kg, time 8 hrs; details: in vivo

SMILES	CLint [1]	Papp [2]	solubility [3]	CL free [4]	clearance [5]	bioavailability [6]	MRT [7]	Activity [8]	MRT [9]	Vd [10]	Activity [11]	Vd [12]	CL free [13]	clearance [14]	solubility [15]	AUC [16]
COc1cc2c(cc1Nc1ncc(C(N)=O)c(Nc3c(C)cccc3F)n1)CN(C)CC2	69 µL/min/1e6 cells	2.78 ×10⁻⁶ cm/s	9 µM (≈ 3.93 µg/mL)	–	–	–	–	–	–	–	–	–	–	–	–	–
COc1cc2c(cc1Nc1ncc(C(N)=O)c(Nc3c(F)cccc3C(F)(F)F)n1)CN(C)CC2	–	2.9 ×10⁻⁶ cm/s	–	1529 mL/min/kg	30 mL/min/kg	13%	78 min	Dose-Dependent Effect	28.8 min	2 L/kg	Dose-Dependent Effect	61 L/kg	2170 mL/min/kg	28 mL/min/kg	–	–
COc1cc2c(cc1Nc1ncc(C)c(Nc3ccccc3)n1)CN(C)CC2	–	–	152 µM (≈ 57.1 µg/mL)	–	–	–	–	–	–	–	–	–	–	–	179 µM (≈ 67.2 µg/mL)	–
COc1cc2c(cc1Nc1ncc(C(N)=O)c(Nc3ccccc3CO)n1)CN(C)CC2	–	0.54 ×10⁻⁶ cm/s	–	548 mL/min/kg	67 mL/min/kg	7.9%	120 min	–	39.6 min	65 L/kg	–	29 L/kg	792 mL/min/kg	88 mL/min/kg	–	102 µM·h
COc1cc2c(cc1Nc1ncc(C(N)=O)c(Nc3ccccc3)n1)CN(C)CC2	70 µL/min/1e6 cells	2.5 ×10⁻⁶ cm/s	92 µM (≈ 37.2 µg/mL)	415 mL/min/kg	46 mL/min/kg	17%	126 min	–	72 min	–	–	–	2532 mL/min/kg	19 mL/min/kg	166 µM (≈ 67.1 µg/mL)	–
COc1cc2c(cc1Nc1ncc(C(F)(F)F)c(Nc3ccccc3)n1)CN(C)CC2	–	–	96 µM (≈ 41.2 µg/mL)	–	–	–	–	–	–	–	–	–	–	–	157 µM (≈ 67.4 µg/mL)	–
COc1cc2c(cc1Nc1nccc(Nc3ccccc3)n1)CN(C)CC2	–	–	147 µM (≈ 53.1 µg/mL)	–	–	–	–	–	–	–	–	–	–	–	160 µM (≈ 57.8 µg/mL)	–
COc1cc2c(cc1Nc1ncc(C(N)=O)c(Nc3ccccc3Br)n1)CN(C)CC2	33 µL/min/1e6 cells	2.12 ×10⁻⁶ cm/s	< 2 µM	–	–	–	–	–	–	–	–	–	–	–	–	–
COc1cc2c(cc1Nc1ncc(C(N)=O)c(Nc3ccccc3[C@H](C)OC)n1)CN(C)CC2	–	3.1 ×10⁻⁶ cm/s	–	2057 mL/min/kg	52 mL/min/kg	9%	30 min	–	19.8 min	1.8 L/kg	–	1 L/kg	2452 mL/min/kg	56 mL/min/kg	–	–
COc1cc2c(cc1Nc1ncc(C(N)=O)c(NC3CCCC3)n1)CN(C)CC2	28 µL/min/1e6 cells	3.6 ×10⁻⁶ cm/s	7 µM (≈ 2.78 µg/mL)	–	–	–	–	–	–	–	–	–	–	–	–	–
